Literature values as cited in patent publication US11044905B2, “Tablet with an antimycotic agent, medical device and method for preserving harvested corneas” (ALCHILIFE S.R.L., priority 2018, dated 2021).

Conditions: organ culture preservation, 31° C.

period of effective protection under conditions of use: ≤ 14 days
Compound: C[C@@H]1[C@H](O)[C@@H](C)/C=C/C=C/C=C/C=C/C=C/C=C/C=C/[C@H](O[C@@H]2O[C@H](C)[C@@H](O)[C@H](N)[C@@H]2O)C[C@@H]2O[C@](O)(C[C@@H](O)C[C@@H](O)[C@H](O)CC[C@@H](O)C[C@@H](O)CC(=O)O[C@H]1C)C[C@H](O)[C@H]2C(=O)O [Amphotericin B]
